ChEMBL document CHEMBL1201862, “PubChem BioAssay data set” (2004)
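Dose response: 5 concentrations. Exposure: 48 h. Format: 96-well plates. Endpoint: linear interpolation; highest concentration if not reached. GI50: concentration for 50% inhibition of growth.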 Calls of active or inactive are those of the source. Cut-off read from the data, not from the text of the source: active = GI50 up to about 1.1 µM and inactive = higher.

Tests used:
Assay in all cases: NCI-60 cell line screen, 48 h
SK-MEL-28 = system: SK-MEL-28
U-251 = system: U-251
MDA-N = system: MDA-N
OVCAR-8 = system: OVCAR-8
TK-10 = system: TK-10
HOP-62 = system: HOP-62
SK-MEL-2 = system: SK-MEL-2
HCT-15 = system: HCT-15
SK-OV-3 = system: SK-OV-3
SK-MEL-5 = system: SK-MEL-5
Malme-3M = system: Malme-3M
BT-549 = system: BT-549
EKVX = system: EKVX
HCT-116 = system: HCT-116
HOP-92 = system: HOP-92
HT-29 = system: HT-29
M14 = system: M14
ACHN = system: ACHN
T47D = system: T47D
MOLT-4 = system: MOLT-4
PC-3 = system: PC-3
KM12 = system: KM12
MDA-MB-231 = system: MDA-MB-231
NCI/ADR-RES = system: NCI/ADR-RES
SF-268 = system: SF-268
OVCAR-4 = system: OVCAR-4
NCI-H23 = system: NCI-H23
SN12C = system: SN12C
UACC-62 = system: UACC-62
SF-295 = system: SF-295
MCF7 = system: MCF7
NCI-H226 = system: NCI-H226
UACC-257 = system: UACC-257
K562 = system: K562
LOX IMVI = system: LOX IMVI
DU-145 = system: DU-145
A498 = system: A498
SNB-75 = system: SNB-75
OVCAR-5 = system: OVCAR-5
UO-31 = system: UO-31
786-0 = system: 786-0
SNB-19 = system: SNB-19
COLO 205 = system: COLO 205
Hs-578T = system: Hs-578T
CAKI-1 = system: CAKI-1
SR = system: SR
MDA-MB-435 = system: MDA-MB-435
NCI-H522 = system: NCI-H522
A549 = system: A549
HCC 2998 = system: HCC 2998
OVCAR-3 = system: OVCAR-3
RPMI-8226 = system: RPMI-8226
SW-620 = system: SW-620
HL-60 = system: HL-60
SF-539 = system: SF-539
IGROV-1 = system: IGROV-1
CCRF-CEM = system: CCRF-CEM

## C[C@]12O[C@@]3(C)O[C@@]3(C)[C@]3(C)O[C@]3(C)[C@@]1(C)O2
SK-MEL-28
  GI50: > 100 µM (inactive)
U-251
  GI50: > 100 µM (inactive)
MDA-N
  GI50: > 100 µM (inactive)
OVCAR-8
  GI50: > 100 µM (inactive)
TK-10
  GI50: > 100 µM (inactive)
HOP-62
  GI50: > 100 µM (inactive)
SK-MEL-2
  GI50: > 100 µM (inactive)
HCT-15
  GI50: > 100 µM
SK-OV-3
  GI50: > 100 µM (inactive)
SK-MEL-5
  GI50: > 100 µM (inactive)
Malme-3M
  GI50: > 100 µM (inactive)
BT-549
  GI50: > 100 µM (inactive)
EKVX
  GI50: > 100 µM (inactive)
HCT-116
  GI50: > 100 µM (inactive)
HOP-92
  GI50: > 100 µM (inactive)
HT-29
  GI50: > 100 µM (inactive)
M14
  GI50: > 100 µM (inactive)
ACHN
  GI50: > 100 µM (inactive)
T47D
  GI50: 1.22 µM (inactive)
MOLT-4
  GI50: > 100 µM (inactive)
PC-3
  GI50: > 100 µM (inactive)
KM12
  GI50: > 100 µM (inactive)
MDA-MB-231
  GI50: > 100 µM (inactive)
NCI/ADR-RES
  GI50: > 100 µM (inactive)
SF-268
  GI50: > 100 µM (inactive)
OVCAR-4
  GI50: > 100 µM (inactive)
NCI-H23
  GI50: > 100 µM (inactive)
SN12C
  GI50: > 100 µM (inactive)
UACC-62
  GI50: > 100 µM (inactive)
SF-295
  GI50: > 100 µM (inactive)
MCF7
  GI50: > 100 µM (inactive)
NCI-H226
  GI50: > 100 µM (inactive)
UACC-257
  GI50: > 100 µM (inactive)
K562
  GI50: > 100 µM (inactive)
LOX IMVI
  GI50: > 100 µM (inactive)
DU-145
  GI50: > 100 µM (inactive)
A498
  GI50: > 100 µM (inactive)
SNB-75
  GI50: 0.598 µM (active)
OVCAR-5
  GI50: > 100 µM (inactive)
UO-31
  GI50: > 100 µM (inactive)
786-0
  GI50: > 100 µM (inactive)
SNB-19
  GI50: > 100 µM (inactive)
COLO 205
  GI50: > 100 µM (inactive)
Hs-578T
  GI50: > 100 µM (inactive)
CAKI-1
  GI50: > 100 µM (inactive)
SR
  GI50: > 100 µM (inactive)
MDA-MB-435
  GI50: > 100 µM (inactive)
NCI-H522
  GI50: > 100 µM (inactive)
A549
  GI50: > 100 µM (inactive)

## COc1cc(OC)c(OC)cc1/C=C/c1ccc2ccccc2n1
SK-MEL-28
  GI50: > 10 µM (inactive)
HCC 2998
  GI50: > 10 µM (inactive)
U-251
  GI50: > 10 µM (inactive)
MDA-N
  GI50: 8.07 µM (inactive)
OVCAR-8
  GI50: > 10 µM (inactive)
TK-10
  GI50: > 10 µM (inactive)
HOP-62
  GI50: > 10 µM (inactive)
HCT-15
  GI50: 7.62 µM
SK-OV-3
  GI50: > 10 µM (inactive)
SK-MEL-5
  GI50: 8.77 µM (inactive)
OVCAR-3
  GI50: > 10 µM (inactive)
Malme-3M
  GI50: > 10 µM (inactive)
BT-549
  GI50: 8.89 µM (inactive)
RPMI-8226
  GI50: 3.66 µM (inactive)
HCT-116
  GI50: 3.72 µM (inactive)
HOP-92
  GI50: 5.57 µM (inactive)
SW-620
  GI50: > 10 µM (inactive)
HT-29
  GI50: 4.35 µM (inactive)
M14
  GI50: > 10 µM (inactive)
ACHN
  GI50: > 10 µM (inactive)
T47D
  GI50: 6.97 µM (inactive)
MOLT-4
  GI50: 3.78 µM (inactive)
HL-60
  GI50: 3.27 µM (inactive)
PC-3
  GI50: 6.08 µM (inactive)
KM12
  GI50: 7.85 µM (inactive)
SF-539
  GI50: 3.53 µM (inactive)
MDA-MB-231
  GI50: > 10 µM (inactive)
NCI/ADR-RES
  GI50: 7.6 µM (inactive)
SF-268
  GI50: > 10 µM (inactive)
OVCAR-4
  GI50: > 10 µM (inactive)
NCI-H23
  GI50: 2.89 µM (inactive)
SN12C
  GI50: > 10 µM (inactive)
UACC-62
  GI50: 6.44 µM (inactive)
SF-295
  GI50: 9.71 µM (inactive)
MCF7
  GI50: 9.57 µM (inactive)
IGROV-1
  GI50: > 10 µM (inactive)
UACC-257
  GI50: > 10 µM (inactive)
K562
  GI50: 5.33 µM (inactive)
LOX IMVI
  GI50: > 10 µM (inactive)
DU-145
  GI50: > 10 µM (inactive)
CCRF-CEM
  GI50: 6.17 µM (inactive)
SNB-75
  GI50: 9.71 µM (inactive)
OVCAR-5
  GI50: > 10 µM (inactive)
786-0
  GI50: > 10 µM (inactive)
COLO 205
  GI50: > 10 µM (inactive)
Hs-578T
  GI50: 3.44 µM (inactive)
CAKI-1
  GI50: > 10 µM (inactive)
SR
  GI50: 3.57 µM (inactive)
MDA-MB-435
  GI50: 7.23 µM (inactive)
NCI-H522
  GI50: 5.41 µM (inactive)
A549
  GI50: > 10 µM (inactive)
